The values that follow come from patent publication US8241863B2, “Identification of an evolutionarily conserved pathway mediating transrepression of inflammatory response genes by nuclear receptors” (The Regents of the University of California, priority 2005, dated 2012).

Assay [1] has as its system iNOS promoter. In words: iNOS-luciferase reporter transrepression in RAW264.7 cells transfected with PPARγ. Format: cell-based, mouse. On the technique in general: In a reporter assay the amount or activity of a reporter protein is the signal.
Source text: For transrepression experiments, wild-type PPARγ or PPARγ mutants were transfected at a 3:1 ratio to reporter plasmids using Superfect reagent (Qiagen). […] Transfection experiments evaluated each experimental condition in triplicate and results were expressed as mean +/− standard deviation. Each transfection experiment was independently repeated at least three times. Statistical analysis was preformed using Student's t-test with P<0.01 considered statistically significant.
In FIG. 1b, RAW264.7 cells were transfected with the indicated siRNAs and PPARγ expression and iNOS-luciferase reporter plasmids. Cells were treated with LPS and/or Ro as in panel a prior to assay of luciferase activity. […] In FIG. 1d, RAW264.7 cells were transfected with the indicated siRNAs and PPARγ expression and iNOS-luciferase reporter plasmids. Cells were treated with LPS and/or Ro as in FIG. 1a, prior to assay of luciferase activity. […] In FIG. 1f, RAW264.7 cells were transfected with the indicated siRNAs and PPARγ expression and iNOS-luciferase reporter plasmids and stimulated with LPS for 6 h prior to assay of luciferase activity.
In FIG. 4a, RAW264.7 cells were transfected with the iNOS reporter, PPARγ expression plasmid and Ubc9-siRNA. 36 h post-transfection cells were pretreated with Ro for 1 h and LPS for 6 h prior to assay of luciferase activity. […]
Assay [2] concerns the target T1, PPARγ (Mus musculus, UniProt P37238).
T1 construct: expressed in transfected cells; host or cells: RAW264.7 mouse macrophage cell line
T1 sequence (P37238 1-475 isoform P37238-2): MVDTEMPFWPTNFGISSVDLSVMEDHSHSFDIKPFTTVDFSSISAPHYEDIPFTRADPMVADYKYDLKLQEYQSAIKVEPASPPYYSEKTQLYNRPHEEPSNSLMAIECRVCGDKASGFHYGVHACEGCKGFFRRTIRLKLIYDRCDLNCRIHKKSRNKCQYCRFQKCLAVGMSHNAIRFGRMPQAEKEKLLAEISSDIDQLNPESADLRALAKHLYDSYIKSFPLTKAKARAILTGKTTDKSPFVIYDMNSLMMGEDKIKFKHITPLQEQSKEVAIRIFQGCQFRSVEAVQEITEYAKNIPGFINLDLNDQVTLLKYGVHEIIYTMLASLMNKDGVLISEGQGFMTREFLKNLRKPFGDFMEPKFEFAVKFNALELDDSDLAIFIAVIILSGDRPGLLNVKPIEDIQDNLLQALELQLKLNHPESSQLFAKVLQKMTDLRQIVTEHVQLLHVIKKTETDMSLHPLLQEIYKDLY
Nature of the assay: Transactivation assay on positively regulated PPARγ-dependent promoter (Aox-TK luciferase) in RAW264.7 cells. Format: cell-based. Here is the method:
The RAW264.7 mouse macrophage cell line was transiently transfected with plasmids containing the iNOS or Aox-TK promoters directing luciferase expression as previously described 22. For transrepression experiments, wild-type PPARγ or PPARγ mutants were transfected at a 3:1 ratio to reporter plasmids using Superfect reagent (Qiagen). For siRNA experiments, RAW264.7 cells were transfected with siRNAs (40 nM) using Superfect reagent for 48 h prior to activation with PPARγ ligands and LPS induction. […] Transfection experiments evaluated each experimental condition in triplicate and results were expressed as mean +/− standard deviation. Each transfection experiment was independently repeated at least three times. Statistical analysis was preformed using Student's t-test with P<0.01 considered statistically significant.
In FIG. 5b, in vivo detection of SUMOylation of PPARγ was performed in HeLa cells transfected with myc-tagged Sumo1 and HA-tagged WT-PPARγ or PPARγ^K365R. Cells were immunoprecipitated for HA tag and blotted for myc tag. NT refers to non-transfected cells. In FIG. 5c, RAW264.7 cells were transfected with wild-type (WT) and mutant HA-PPARγ and Flag(FL)-tagged PIAS1 expression plasmids and treated with Ro for 0, 10, 30 or 60 min. Whole cell extracts were immunoprecipitated for HA tag followed by western blotting for FL-PIAS1. […]

Assay [3] concerns PPARγ-sensitive genes. Nature of the assay: Microarray of primary macrophages transfected with control or NCoR siRNA. The format is cell-based. As to conditions: NCoR siRNA vs control siRNA. Here is the method:
To determine how widely the SUMOylation/NCoR-dependent pathway is utilized by PPARγ to repress inflammatory response genes, microarray studies were performed in primary macrophages transfected with control siRNAs or siRNAs directed against NCoR mRNA.

For the molecule `CN(CCOc1ccc(C[C@H](Nc2ccccc2C(=O)c2ccccc2)C(=O)O)cc1)c1ccccn1` [GW1929], the “repression of LPS induced iNOS promoter activity” value in assay [1] is “very weak repressor”. Also, the transactivation activity entry in assay [2] is reported as “strong transactivation activity”. With `CN(CCOc1ccc(CC2SC(=O)NC2=O)cc1)c1ccccn1` (stereo not drawn) [rosiglitazone], the “PPARγ-sensitive genes whose repression by ligand was abolished by knockdown of NCoR” value in assay [3] is 80%.
